Converted amounts (≈) assume the structure as drawn. Like-named read-outs stand apart in the source and are kept apart here.
Tests used:
[1] = system: L. major IR‐173 promastigotes; experiment: Antipromastigote assay (resazurin); assay type: cell-based; settings: Leishmania major, read-out: Antipromastigote activity, IC50 ±SD, IR‐173
Procedure: (§1) Antipromastigote assay: The antipromastigote activity of synthesized compounds was evaluated as described previously by […] al.[47] using L. donovani 9515 (MHOM/IN/95/9515) and L. major IR-173 (MHOM/IR/-173). […] Al dri c h) […] The prom astigotes were […] 25 °C. […] Therm ofisher Scientific) in the presence of: […] com pounds for IC50 determination. […] blank. […] Em etine served as the standard cytotoxic drug. […] References […]

[2] = system: L. donovani 9515 promastigotes; experiment: Antipromastigote assay (resazurin); assay type: cell-based, Leishmania donovani; settings: for IC50: Leishmania donovani, read-out: Antipromastigote activity, IC50 ±SD, 9515
Procedure: as §1

[3] = Macrophage toxicity, resazurin assay; assay type: cell-based; settings: human, differentiated THP-1 cells (macrophages), differentiated THP‐1 macrophages, read-out: Cytotoxicity, THP‐1, IC50±SD
Procedure: Macrophage toxicity: Toxicity of the compounds on the differentiated host THP‐1 cells were also evaluated. As mentioned, duplicate plates of differentiated THP‐1 cells were prepared during the anti‐amastigote assay. These plates were incubated for 72 hours to differentiate, instead of replacing the growth medium with parasite‐containing medium after 48 hours. […] Blanks were growth medium without cells. The treated plates were incubated for 72 hours, followed by the addition of 50 μL of resazurin solution (0.01 % in PBS) to each well and 24‐hour incubation.

[4] = Basal cytotoxicity, resazurin assay; settings: human
HEK‐293 cells = experiment: Basal cytotoxicity, resazurin assay; settings: read-out: Cytotoxicity, HEK‐293, IC50±SD; HEK‐293 cells, resazurin
[5] = system: L. donovani 9515 amastigotes; experiment: Anti‐amastigote assay, intramacrophage (THP‐1), resazurin; assay type: cell-based, Leishmania donovani; settings: for Selectivity index SI2: L. donovani 9515: IC50 HEK‐293/IC50 amastigote; for Selectivity index SI4: L. donovani 9515: IC50 THP‐1/IC50 amastigote; for IC50: Leishmania donovani, THP-1, L. donovani 9515 intramacrophage amastigotes, read-out: Anti‐amastigote activity, IC50 ±SD, 9515; for Specificity index SpI2: L. donovani 9515: IC50 promastigote/IC50 amastigote
Procedure: (§2) For the anti‐amastigote assay, differentiated plates were carefully washed with PBS, followed by the addition of 200 μL of stationary phase promastigotes in RPMI 1640 medium with 2 % FBS. An MOI of 30 : 1 was used for all three Leishmania strains. […] The treated plates were incubated for 72 hours. After incubation, the plates were gently washed three times with PBS to remove any remaining extracellular parasites. The wells were then treated with 20 μL of 0.05 % sodium dodecyl sulphate in PBS for 30 seconds to lyse the host macrophages. Lysis was terminated by adding 180 μL promastigote growth medium with 10 % FBS. […] Absorbance measurements, calculations and IC50 determinations were performed as described for the antipromastigote assay (Supporting Information).

[6] = system: L. major IR‐173 amastigotes; experiment: as above; assay type: cell-based, Leishmania major; settings: for Selectivity index SI3: L. major IR‐173: IC50 THP‐1/IC50 amastigote; for Specificity index SpI1: L. major IR‐173: IC50 promastigote/IC50 amastigote; for IC50: read-out: Anti‐amastigote activity, IC50 ±SD, IR‐173
Procedure: as §2

[7] = cited from earlier work
[8] = during therapy ref 19; cited from earlier work
in vitro = settings: human, Cytotoxicity, HEK‐293, IC50±SD
[9] = HEK-293 cells (ATCC CRL 1573), Cytotoxicity, HEK‐293, IC50±SD, HEK‐293 cells, resazurin
[10] = Leishmania major, THP-1, L. major IR‐173 intramacrophage amastigotes

| SMILES | IC50 [1] [µM] | IC50 at 72 h [3] [µM] | IC50 [4, 9] [µM] | Selectivity index SI4 [5] | IC50 [5] [µM] | IC50 [6, 10] [µM] | IC50 [2] [µM] | further results |
| --- | --- | --- | --- | --- | --- | --- | --- | --- |
| CC(C)c1ccc(Cn2cc(CN3C(=O)CN(/N=C/c4ccc([N+](=O)[O-])o4)C3=O)nn2)cc1 [Compound 13] | 0.57 ± 0.01 | > 100 | < 10 | > 11 | 9.13 |  |  | Antipromastigote activity, IC50 ±SD, 9515 [2]: inactive; IC50 (HEK‐293 cells): 7.27 ± 0.93 µM; Selectivity index SI2 [5]: 1 |
| CC(C)(C)c1ccc(Cn2cc(CN3C(=O)CN(/N=C/c4ccc([N+](=O)[O-])o4)C3=O)nn2)cc1 [Compound 14] | 0.45 ± 0.1 | > 100 | 23.2 ± 2.77 | > 86 | 1.16 ± 0.02 |  |  | Antipromastigote activity, IC50 ±SD, 9515 [2]: inactive; Selectivity index SI2 [5]: 20 |
| O=C1CN(/N=C/c2ccc([N+](=O)[O-])o2)C(=O)N1Cc1cn(Cc2ccc(Br)cc2)nn1 [Compound 15] | 0.5 ± 0.03 | > 100 | 32.7 ± 4.19 |  |  | 5.14 ± 0.67 | 7.59 ± 0.56 | Selectivity index SI1 ([6]; L. major IR‐173: IC50 HEK‐293/IC50 amastigote): 6; Selectivity index SI3 [6]: > 19; Specificity index SpI1 [6]: 0.1 |
| O=C1CN(/N=C/c2ccc([N+](=O)[O-])o2)C(=O)N1Cc1cn(Cc2ccc(Br)cc2F)nn1 [Compound 16] | 0.19 ± 0.01 | 55.7 ± 1.17 | 14.4 ± 0.84 | 6 | 9.21 | < 10 |  | Selectivity index SI3 [6]: 9; Specificity index SpI1 [6]: 0.5; IC50 ([6]; L. major IR‐173 intramacrophage amastigotes): 6.42 ± 0.38 µM; Selectivity index SI2 [5]: 2 |
| O=C1CN(/N=C/c2ccc([N+](=O)[O-])o2)C(=O)N1Cc1cn(Cc2ccc(F)cc2)nn1 [Compound 17] | 1.05 ± 0.07 |  | 48.4 ± 1.88 |  |  |  |  |  |
| O=C1CN(/N=C/c2ccc([N+](=O)[O-])o2)C(=O)N1Cc1cn(Cc2ccc([N+](=O)[O-])cc2)nn1 [Compound 18] | 0.38 |  |  |  |  |  |  | IC50 [4]: 60.2 ± 2.29 µM |
| O=C1CN(/N=C/c2ccc([N+](=O)[O-])o2)C(=O)N1Cc1cn(Cc2cccc(Br)c2)nn1 [Compound 19] | 0.48 |  | 12.6 ± 0.46 |  |  |  | 1.75 ± 0.11 |  |
| O=C1CN(/N=C/c2ccc([N+](=O)[O-])o2)C(=O)N1Cc1cn(Cc2cccc(C(F)(F)F)c2)nn1 [Compound 20] | 0.13 ± 0.02 |  | 15.8 ± 3.69 |  |  |  |  |  |
| CC[C@H]1CN2CCc3cc(OC)c(OC)cc3[C@@H]2C[C@@H]1C[C@H]1NCCc2cc(OC)c(OC)cc21 [EM, Emetine, reference compound] |  |  | 0.01 |  |  |  |  |  |
| O=C1OCCN1/N=C/c1ccc([N+](=O)[O-])o1 [FZD, furazolidone, reference compound] | 0.37 ± 0.02 |  |  |  | 4.11 ± 0.78 | 2.8 ± 0.5 | 0.57 ± 0.05 |  |
| O=C1CN(/N=C/c2ccc([N+](=O)[O-])o2)C(=O)N1 [NFT, nitrofurantoin, reference compound] | > 10 | > 100 |  | > 10 | 9.92 ± 0.11 | > 10 | > 10 | solubility in DMF ([7]; DMF): 50 mg/mL (≈ 210 mM); solubility in DMSO ([7]; DMSO): 25 mg/mL (≈ 105 mM); solubility in water ([7]; water ref 26): 0.19 mg/mL (≈ 0.798 mM); excreted unchanged [8]: 33%; IC50 (in vitro): > 100 µM |
| O=C(N/N=C/c1ccc([N+](=O)[O-])o1)c1ccc(O)cc1 [NFX, nifuroxazide, reference compound] | > 10 | > 100 |  | > 14 | 7.29 ± 0.39 | > 10 | 4.48 ± 0.1 | Specificity index SpI2 [5]: 0.6; IC50 (in vitro): > 100 µM |
| NC(=O)N/N=C/c1ccc([N+](=O)[O-])o1 [NFZ, nitrofurazone, reference compound] | 1.22 ± 0.03 | > 100 | > 100 | > 20 | 4.94 ± 0.61 | 5.75 ± 0.75 | 1.82 ± 0.03 | Selectivity index SI3 [6]: > 17; Specificity index SpI1 [6]: 0.2; Specificity index SpI2 [5]: 0.4 |
